Measurements taken from patent EP1982595A1, “Insecticidal derivatives of substituted aminoheterocycles” (Bayer CropScience AG, priority 2007, dated 2008).
Read-outs that look alike come from different tables or passages of the source.

How the values were obtained:
[1] = logP (acidic) / lgP (HCOOH), phys. data; format: physicochemical; conditions: for logP: acidic; for lgP (HCOOH): preparation examples, b176 prints logP (HCOOH)
Myzus persicae = Myzus persicae - test (spray application); format: in vivo; conditions: read-out: activity (mortality in %)
Protocol: Myzus persicae - test; (spray application)
(§1) To produce a suitable preparation of active compound, 1 part by weight of active compound is mixed with the stated amount of solvent and emulsifier, and the concentrate is diluted with emulsifier-containing water to the desired concentration.
Chinese cabbage (Brassica pekinesis) leaf-disks infected with all instars of the green peach aphid (Myzus persicae), are sprayed with a preparation of the active ingredient at the desired concentration.
After the specified period of time, mortality in % is determined, 100% means that all aphids have been killed; 0% means that none of the aphids have been killed, […]

Phaedon cochleariae = Phaedon cochleariae - test (spray application); format: in vivo; conditions: application rate of 500 g/ha, Chinese cabbage leaf-disks, mustard beetle larvae
Protocol: Phaedon cochlearlae - test (spray application)
To produce a suitable preparation of active compound, I part by weight of active compound is mixed with the stated amount of solvent and emulsifier, and the concentrate is diluted with emulsifier-containing water to the desired concentration.
Chinese cabbage (Brassica pekinesis) leaf-disks are treated by being sprayed with the preparation of the active compound of the desired concentration and are, after drying, infested with mustard beetle larvae (Phaedon cochleariae).
After the specified period of time, mortality in % is determined, 100 % means that all the beetle larvae have been killed; 0 % means that none of the beetle larvae have been killed.

Tetranychus urticae = Tetranychus urticae - test; OP-resistant (spray application); format: in vivo; conditions: application rate of 100 g/ha, French bean, all stages
Protocol: Tetranychus urticae - test; OP-resistant (spray application)
as §1
French bean (Phaseolus vulgaris) which are heavily infested with all stages of the two spotted spidermite (Tetranychus urticae), are sprayed with a preparation of the active ingredient at the desired concentration.
After the specified period of time, mortality in % is determined, 100% means that all spider mites have been killed and 0% means that none of the spider mites have been killed.

[2] = Table I-1, read-out: Phys. data = logP (acidic)
[3] = application rate of 500 g/ha, spray application, Chinese cabbage leaf-disks, all instars of the green peach aphid

`S=C(NCc1ccncc1)N1CCOC1=N[C@H]1CCc2ccccc21` [1-43] gave a logP [1, 2] of 1.87.

For `CC(NC(=S)N1CCOC1=N[C@H]1CCc2ccccc21)c1ccccc1Cl` (some centres unmarked) [1-32], the logP [1, 2] was 5.31 and the mortality at 500 g/ha (Myzus persicae; [3]) was no less than 80%.

Compound `S=C(NCc1ccccc1Cl)N1CCOC1=N[C@H]1CCc2ccccc21` [1-21] has a logP [1, 2] of 4.97 and a mortality at 500 g/ha (Myzus persicae; [3]) of no less than 80%.

In the case of `COc1ccc(CNC(=S)N2CCOC2=N[C@H]2CCc3ccccc32)cc1` [1-25], the logP [1, 2] is reported as 4.28 and the mortality at 500 g/ha (Myzus persicae; [3]) is reported as no less than 80%.

With `CC(NC(=S)N1CCSC1=NC1CCc2c(F)cccc21)c1ccccc1` (centres unmarked) [2-31, 2-[aza(4-fluorindanyl)-methylene](1,3-thiazolidine-3-yl)(alphamethylbenzylamino)methane-1-thione] the Phys. data ([1]; Table I-2, key logP (acidic) is printed only in the head of Table I-1) was 5.47 and the logP ([1]; preparation example 3, text, read-out: logP (acidic)) was 5.47.

With `CC(C)=CCNC(=S)N1CCOC1=N[C@H]1CCc2ccccc21` [1-72] the logP [1, 2] was 4.78.

`Fc1ccc(CNC(=S)N2CCOC2=N[C@H]2CCc3ccccc32)cc1` [1-24] showed a logP [1, 2] of 4.51 and a mortality at 500 g/ha (Myzus persicae; [3]) of no less than 80%.

With `S=C(NCc1ccco1)N1CCOC1=N[C@H]1CCc2ccccc21` [1-45] the logP [1, 2] was 4.17.

For `S=C(NCc1ccc(Cl)nc1)N1CCOC1=N[C@H]1CCc2ccccc21` [1-40], the logP [1, 2] was 4.04.

For `S=C(NCc1ccccc1)N1CCOC1=N[C@H]1CCCc2ccccc21` [3-2, N-benzyl-2-[(1S)-1,2,3,4-tetrahydronaphthaline-1-ylimino]-1,3-oxazolidine-3-carbothioamide], the Phys. data ([1]; Table I-3, logP (HCOOH), i.e. acidic conditions) was 4.67, the “lgP (HCOOH)” value [1] was 4.67 and the mortality at 500 g/ha (Myzus persicae; in Brassica rapa) was no less than 80%.

`S=C(NCc1ccccc1)N1CCOC1=NC1CCc2ccccc21` (centres unmarked) [1-1] gave a logP [1, 2] of 4.46 and a mortality at 500 g/ha (Myzus persicae; [3]) of no less than 80%.

Work on `CC(NC(=S)N1CCOC1=N[C@H]1CCc2ccccc21)c1cccc(Cl)c1` (some centres unmarked) [1-35] yielded a logP [1, 2] of 5.31, a mortality at 500 g/ha (Myzus persicae; [3]) of no less than 80% and a mortality at 500 g/ha (Phaedon cochleariae) of no less than 80%.

With `S=C(NCc1ccc2c(c1)OCO2)N1CCOC1=N[C@H]1CCc2ccccc21` [1-22] the logP [1, 2] was 4.11, the mortality at 500 g/ha (Myzus persicae; [3]) was no less than 80% and the mortality at 500 g/ha (Phaedon cochleariae) was no less than 80%.

Compound `COc1ccc(CNC(=S)N2CCOC2=N[C@H]2CCc3ccccc32)cc1OC` [1-26] has a logP [1, 2] of 3.8 and a mortality at 500 g/ha (Myzus persicae; [3]) of no less than 80%.

Work on `S=C(NCc1cccnc1)N1CCOC1=N[C@H]1CCc2ccccc21` [1-44] yielded a logP [1, 2] of 2.17 and a mortality at 500 g/ha (Myzus persicae; [3]) of no less than 80%.

With `S=C(NCc1ncccn1)N1CCOC1=N[C@H]1CCc2ccccc21` [1-71] the logP [1, 2] was 2.92.

In the case of `Cc1ccc(CNC(=S)N2CCOC2=N[C@H]2CCc3ccccc32)cc1` [1-23], the logP [1, 2] is reported as 4.91 and the mortality at 500 g/ha (Myzus persicae; [3]) is reported as no less than 80%.

With `CC(NC(=S)N1CCOC1=N[C@H]1CCc2ccccc21)c1ccccc1` (some centres unmarked) [1-29] the logP [1, 2] was 4.85.

With `S=C(NCc1ccc(Cl)cc1)N1CCOC1=N[C@H]1CCc2ccccc21` [1-19] the logP [1, 2] was 5.02 and the mortality at 500 g/ha (Myzus persicae; [3]) was no less than 80%.

In the case of `S=C(NCc1ccccc1)N1CCOC1=N[C@H]1CCc2ccccc21` [1-2, N-benzyl-2-[(1S)-2,3-dihydro-1H-inden-1-ylimino]-1,3-oxazolidiner3-carbothioamide], the logP [1, 2] is reported as 4.46, the “lgP (HCOOH)” value [1] is reported as 4.46 and the mortality at 500 g/ha (Myzus persicae; [3]) is reported as no less than 80%. For the same compound, the mortality at 100 g/ha (Tetranychus urticae) was no less than 80%.

Work on `S=C(NCc1cccc(Cl)c1)N1CCOC1=N[C@H]1CCc2ccccc21` [1-20] yielded a logP [1, 2] of 4.97 and a mortality at 500 g/ha (Myzus persicae; [3]) of no less than 80%.

`S=C(NCc1ccc(Cl)cc1Cl)N1CCOC1=N[C@H]1CCc2ccccc21` [1-27] gave a logP [1, 2] of 5.65, a mortality at 500 g/ha (Myzus persicae; [3]) of no less than 80% and a mortality at 500 g/ha (Phaedon cochleariae) of no less than 80%.

Work on `C=CCNC(=O)N1CCOC1=NC1CCc2ccccc21` (centres unmarked) [1-48] yielded a logP [1, 2] of 3.85.

Work on `CC(NC(=S)N1CCOC1=N[C@H]1CCc2ccccc21)c1ccc(Cl)cc1` (some centres unmarked) [1-34] yielded a logP [1, 2] of 5.64 and a mortality at 500 g/ha (Myzus persicae; [3]) of no less than 80%.

Work on `C=CCNC(=S)N1CCOC1=NC1CCc2ccccc21` (centres unmarked) [1-47] yielded a logP [1, 2] of 3.85 and a mortality at 500 g/ha (Myzus persicae; [3]) of no less than 80%.

`S=C(NCCc1ccc(Cl)cc1)N1CCOC1=N[C@H]1CCc2ccccc21` [1-38] showed a logP [1, 2] of 5.25 and a mortality at 500 g/ha (Myzus persicae; [3]) of no less than 80%.

`S=C(NCCc1cccc(Cl)c1)N1CCOC1=N[C@H]1CCc2ccccc21` [1-39] gave a logP [1, 2] of 5.19, a mortality at 500 g/ha (Myzus persicae; [3]) of no less than 80% and a mortality at 500 g/ha (Phaedon cochleariae) of no less than 80%.

`CC(NC(=S)N1CCOC1=NC1CCc2ccccc21)c1ccc(F)cc1` (centres unmarked) [1-36] showed a logP [1, 2] of 4.91 and a mortality at 500 g/ha (Myzus persicae; [3]) of no less than 80%.
